Measured values taken from ChEMBL document CHEMBL1201862, “PubChem BioAssay data set” (2004).
“And” between values parts separate entries of the source, which are not always exact repeats. Identical values can stand only once. Counter-ions that a name gives are not always drawn.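 The compound was tested at five concentrations on cells cultured in 96-well plates, with a 48-hour exposure period. Here, GI50 denotes the concentration required for 50% inhibition of growth.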 The source made the active and inactive calls. Cut-off read from the data, not from the text of the source: active = GI50 up to about 1.1 µM and inactive = higher.

Columns and labels:
Assay in all cases: NCI-60 cell line screen, 48 h
HOP-92 = test system: HOP-92
ACHN = test system: ACHN
COLO 205 = test system: COLO 205
HL-60 = test system: HL-60
NCI-H23 = test system: NCI-H23
SF-295 = test system: SF-295
MDA-MB-435 = test system: MDA-MB-435
SK-MEL-5 = test system: SK-MEL-5
U-251 = test system: U-251
OVCAR-4 = test system: OVCAR-4
LOX IMVI = test system: LOX IMVI
IGROV-1 = test system: IGROV-1
UACC-62 = test system: UACC-62
HOP-62 = test system: HOP-62
MDA-MB-231 = test system: MDA-MB-231
M14 = test system: M14
SK-MEL-28 = test system: SK-MEL-28
UO-31 = test system: UO-31
NCI-H226 = test system: NCI-H226
SNB-75 = test system: SNB-75

Structure (SMILES)	GI50 (HOP-92)	GI50 (ACHN)	GI50 (COLO 205)	GI50 (HL-60)	GI50 (NCI-H23)	GI50 (SF-295)	GI50 (MDA-MB-435)	GI50 (SK-MEL-5)	GI50 (U-251)	GI50 (OVCAR-4)	GI50 (LOX IMVI)	GI50 (IGROV-1)	GI50 (UACC-62)	GI50 (HOP-62)	GI50 (MDA-MB-231)	GI50 (M14)	GI50 (SK-MEL-28)	GI50 (UO-31)	GI50 (NCI-H226)	GI50 (SNB-75)
CCOC(=O)[C@@]12NN=N[C@@H]1[C@H]1CO[C@H](c3ccccc3)N1C2=O	1.64 µM (inactive)	13.4 µM (inactive)	10.2 µM (inactive)	17.3 µM (inactive)	12.5 µM (inactive)	11.6 µM (inactive)	11.1 µM (inactive)	11.1 µM (inactive)	4.54 µM (inactive)	16.5 µM (inactive)	2.18 µM (inactive)	5.24 µM (inactive)	7.6 µM (inactive)	14.5 µM (inactive)	12.2 µM (inactive)	6.18 µM (inactive)	5.25 µM (inactive)	–	–	–
C/C(=N\Nc1nc2ccccc2s1)c1cnccn1	1.51 µM (inactive)	0.397 µM (active)	0.344 µM (active)	–	1.94 µM (inactive)	2.76 µM (inactive)	6.01 µM (inactive)	2.57 µM (inactive)	3.67 µM (inactive)	16.7 µM (inactive)	–	0.406 µM (active)	3.88 µM (inactive)	2.75 µM (inactive)	0.757 µM (active)	0.685 µM (active)	9.66 µM (inactive)	1.06 µM (active)	0.247 µM (active)	2.8 µM (inactive)
CCOC(=O)c1c(SCCO)n(-c2ccccc2)c(=S)n(-c2ccccc2)c1=O	> 100 µM (inactive)	> 100 µM (inactive)	> 100 µM (inactive)	> 100 µM (inactive)	> 100 µM (inactive)	> 100 µM (inactive)	> 100 µM (inactive)	> 100 µM (inactive)	> 100 µM (inactive)	> 100 µM (inactive)	> 100 µM (inactive)	> 100 µM (inactive)	> 100 µM (inactive)	> 100 µM (inactive)	–	> 100 µM (inactive)	> 100 µM (inactive)	> 100 µM (inactive)	> 100 µM (inactive)	> 100 µM (inactive)
Nc1sccc1S(=O)(=O)c1ccsc1N	> 100 µM (inactive)	> 100 µM (inactive)	> 100 µM (inactive)	–	> 100 µM (inactive)	> 100 µM (inactive)	> 100 µM (inactive)	> 100 µM (inactive)	> 100 µM (inactive)	> 100 µM (inactive)	> 100 µM (inactive)	> 100 µM (inactive)	> 100 µM (inactive)	> 100 µM (inactive)	> 100 µM (inactive)	> 100 µM (inactive)	> 100 µM (inactive)	> 100 µM (inactive)	> 100 µM (inactive)	> 100 µM (inactive)
O=C1C[S+]([O-])C23c4cc5ccccc5n4CCC2CCCN13 (stereo not drawn)	> 100 µM (inactive)	> 100 µM (inactive)	> 100 µM (inactive)	> 100 µM (inactive)	> 100 µM (inactive)	> 100 µM (inactive)	> 100 µM (inactive)	> 100 µM (inactive)	> 100 µM (inactive)	> 100 µM (inactive)	> 100 µM (inactive)	> 100 µM (inactive)	> 100 µM (inactive)	> 100 µM (inactive)	> 100 µM (inactive)	> 100 µM (inactive)	> 100 µM (inactive)	–	> 100 µM (inactive)	–
Cc1cc(C)c(N)c(CO)c1	> 59.2 µM (inactive)	> 100 µM (inactive)	36.2 µM (inactive) and 46.7 µM (inactive)	–	> 100 µM (inactive)	> 73.6 µM (inactive) and > 74.8 µM (inactive)	> 100 µM (inactive)	> 100 µM (inactive)	61.1 µM (inactive) and 56.1 µM (inactive)	78.9 µM (inactive) and 57.4 µM (inactive)	> 100 µM (inactive)	–	22.8 µM (inactive) and 13.2 µM (inactive)	38 µM (inactive) and > 53.5 µM (inactive)	> 100 µM (inactive)	> 100 µM (inactive)	> 100 µM (inactive)	> 100 µM (inactive) and 97.1 µM (inactive)	–	> 100 µM (inactive)
CCNCC(O)COc1ccc2c(c1)[n+]([O-])nc(N)[n+]2[O-] (stereo not drawn)	–	30.1 µM (inactive)	68.9 µM (inactive)	43.1 µM (inactive)	47.4 µM (inactive)	34.4 µM (inactive)	> 100 µM (inactive)	24.8 µM (inactive)	42.7 µM (inactive)	37.2 µM (inactive)	14.3 µM (inactive)	36.3 µM (inactive)	18 µM (inactive)	23.5 µM (inactive)	> 100 µM (inactive)	40.7 µM (inactive)	> 100 µM (inactive)	> 100 µM (inactive)	59.2 µM (inactive)	29.4 µM (inactive)
CC1=NC(=Cc2ccc(O)cc2)C(=O)N1n1c(-c2ccccc2)nc2ccccc2c1=O	–	> 100 µM (inactive)	> 100 µM (inactive)	> 100 µM (inactive)	> 100 µM (inactive)	> 100 µM (inactive)	> 100 µM (inactive)	> 100 µM (inactive)	–	–	> 100 µM (inactive)	> 100 µM (inactive)	> 100 µM (inactive)	> 100 µM (inactive)	> 100 µM (inactive)	> 100 µM (inactive)	> 100 µM (inactive)	> 100 µM (inactive)	> 100 µM (inactive)	> 100 µM (inactive)
CC(C)[Si](OC1=CCC[C@H]2NC(=O)[C@@H](Cc3ccc([N+](=O)[O-])cc3)[C@@]12C)(C(C)C)C(C)C	–	1.49 µM (inactive)	3.98 µM (inactive)	3.44 µM (inactive)	5.53 µM (inactive)	4.59 µM (inactive)	–	2.3 µM (inactive)	–	4.47 µM (inactive)	4.9 µM (inactive)	11.3 µM (inactive)	14.2 µM (inactive)	4.3 µM (inactive)	6.5 µM (inactive)	12.5 µM (inactive)	–	13.4 µM (inactive)	–	10.4 µM (inactive)
C1CSC[C@H]2COC[C@@H](CSCCS1)S2	> 100 µM (inactive)	–	> 100 µM (inactive)	> 100 µM (inactive)	> 100 µM (inactive)	> 100 µM (inactive)	> 100 µM (inactive)	> 100 µM (inactive)	> 100 µM (inactive)	> 100 µM (inactive)	> 100 µM (inactive)	–	–	> 100 µM (inactive)	> 100 µM (inactive)	> 100 µM (inactive)	> 100 µM (inactive)	> 100 µM (inactive)	–	56 µM (inactive)
CN(C)CCCNc1ccc2nnn3c4ccc(OC(=O)c5ccc([N+](=O)[O-])cc5)cc4c(=O)c1c23	10.6 µM (inactive)	1.5 µM (inactive)	5.22 µM (inactive)	–	6.73 µM (inactive)	5.6 µM (inactive)	5.7 µM (inactive)	–	4.58 µM (inactive)	2.47 µM (inactive)	1.8 µM (inactive)	1.07 µM (active)	15.9 µM (inactive)	3.54 µM (inactive)	9.04 µM (inactive)	13 µM (inactive)	13.7 µM (inactive)	4.67 µM (inactive)	–	–
CCCCCCCCCCCCC(O)C(=O)O (stereo not drawn)	> 100 µM (inactive)	> 100 µM (inactive)	> 100 µM (inactive)	98.6 µM (inactive)	> 100 µM (inactive)	> 100 µM (inactive)	> 100 µM (inactive)	> 100 µM (inactive)	> 100 µM (inactive)	> 100 µM (inactive)	> 100 µM (inactive)	> 100 µM (inactive)	> 100 µM (inactive)	> 100 µM (inactive)	> 100 µM (inactive)	> 100 µM (inactive)	–	> 100 µM (inactive)	–	> 100 µM (inactive)
CC(C)CCC[C@@H](C)C1CCC2[C@@H]3CCC4C[C@@H](NS(C)(=O)=O)CC[C@]4(C)C3CC[C@@]21C (stereo partly drawn)	–	–	> 100 µM (inactive)	> 100 µM (inactive)	> 100 µM (inactive)	> 100 µM (inactive)	> 100 µM (inactive)	> 100 µM (inactive)	> 100 µM (inactive)	> 100 µM (inactive)	> 100 µM (inactive)	> 100 µM (inactive)	> 100 µM (inactive)	> 100 µM (inactive)	> 100 µM (inactive)	> 100 µM (inactive)	> 100 µM (inactive)	> 100 µM (inactive)	> 100 µM (inactive)	> 100 µM (inactive)
CN1C/C(=C\c2cccs2)C(=O)/C(=C/c2cccs2)C1	2.51 µM (inactive)	25.9 µM (inactive)	24.4 µM (inactive)	–	31.2 µM (inactive)	53.8 µM (inactive)	16 µM (inactive)	38.5 µM (inactive)	15.6 µM (inactive)	18.7 µM (inactive)	16.3 µM (inactive)	18.9 µM (inactive)	57.3 µM (inactive)	33 µM (inactive)	18.3 µM (inactive)	21.1 µM (inactive)	52.2 µM (inactive)	18.7 µM (inactive)	> 100 µM (inactive)	–
NCCS [CYSTEAMINE HYDROCHLORIDE]	–	> 100 µM (inactive)	> 100 µM (inactive)	> 100 µM (inactive)	> 100 µM (inactive)	> 100 µM (inactive)	> 100 µM (inactive)	> 100 µM (inactive)	> 100 µM (inactive)	> 100 µM (inactive)	> 100 µM (inactive)	> 100 µM (inactive)	–	> 100 µM (inactive)	> 100 µM (inactive)	> 100 µM (inactive)	> 100 µM (inactive)	> 100 µM (inactive)	> 100 µM (inactive)	> 100 µM (inactive)
